Assay results: patent US11753408B2, “Compounds and method for blocking transmission of malarial parasite” (The United States of America, as represented by the …, priority 2016, dated 2023)

Experiments:
[1] = tested on: Stage III-V gametocytes (blood stage P. falciparum parasites); test: In vitro drug activity on gametocytes (AlamarBlue viability assay); type: cell-based, Plasmodium falciparum; details: read-out: Gametocyte EC50
Procedure, shortened: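 P. falciparum 3D7 stage III–V gametocytes (also HB3, Dd2), enriched by 50 mM N-acetylglucosamine and Percoll gradient, seeded at 20,000/well with compound for 72 h at 37° C, 5% CO2. AlamarBlue then added for 24 h; viability read as fluorescence (Ex 525, Em 598 nm).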

Solubility at pH 7.4 = type: physicochemical
mTOR = mTOR (Homo sapiens, UniProt P42345); test: mTOR activity (no method described); type: biochemical
[2] = tested on: Asexual parasites of P. falciparum strain 3D7; test: In vitro drug activity on asexual parasites (SYBR Green assay); type: cell-based, Plasmodium falciparum
Procedure, shortened: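 3D7 parasites at 0.5% parasitemia and 2% hematocrit were exposed to drugs (DMSO ≤0.5%) for 72 h under standard culture conditions, in duplicate. After freeze-thaw lysis, SYBR Green I lysis buffer was added for 30 min at room temperature, and fluorescence was read at 490/520 nm.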

PAMPA permeability = type: in vitro ADME
[3] = Microsomal stability (rat); type: in vitro ADME; details: rat microsomes

Sol @ pH 7.4 (Solubility at pH 7.4) | mTOR (mTOR) | EC50 [2] | PAMPA Permeability (PAMPA permeability) | Microsomal Stability (rat) T1/2 [3] | SMILES | EC50 [1]
1.4 ug/mL | 0.7141 µM | 0.0379 µM | 18.4 ×10⁻⁶ cm/s | >30.0 min | Cn1c(=O)n(-c2cccc(C#N)c2)c2c3cc(-c4ccc(N)cc4)ccc3ncc21 [Compound 439] | 0.844 µM
<1.0 ug/mL | 0.5162 µM | 0.319 µM | < 1 ×10⁻⁶ cm/s | >30.0 min | Cn1c(=O)n(-c2cccc(C#N)c2)c2c3cc(-c4ccc(Cl)c(O)c4)ccc3ncc21 [Compound 441] | 0.685 µM
3.3 ug/mL | 0.3024 µM | 0.0445 µM | 645 ×10⁻⁶ cm/s | >30.0 min | CC(O)c1ccc(-c2ccc3ncc4c(c3c2)n(-c2cccc(C#N)c2)c(=O)n4C)cc1 (stereo not drawn) [Compound 443] | 0.0683 µM
<1.0 ug/mL | 0.4278 µM | 0.106 µM | 407 ×10⁻⁶ cm/s | 12.8 min | Cn1c(=O)n(-c2cccc(C#N)c2)c2c3cc(-c4cccc(O)c4)ccc3ncc21 [Compound 444] | 0.28 µM

Continued, compound first:

SMILES | Sol @ pH 7.4 (Solubility at pH 7.4) | mTOR (mTOR) | EC50 [2] | PAMPA Permeability (PAMPA permeability) | Microsomal Stability (rat) T1/2 [3] | EC50 [1]
Cn1c(=O)n(-c2cccc(C#N)c2)c2c3cc(-c4ccc(F)cc4)ccc3ncc21 [Compound 402] | 1.9 ug/mL | 53.21 µM | 0.14 µM | 223 ×10⁻⁶ cm/s | >30.0 min | 0.343 µM
N#Cc1cccc(-n2c(=O)n(CCO)c3cnc4ccc(-c5ccc(Cl)cc5)cc4c32)c1 [Compound 404] | 0.9 ug/mL | 50 µM | 0.681 µM | 19.5 ×10⁻⁶ cm/s | >30.0 min | 1.64 µM
CN(C)Cc1ccc(-c2ccc3ncc4c(c3c2)n(-c2cccc(C#N)c2)c(=O)n4C)cc1 [Compound 436] | 52.9 ug/mL | 12.45 µM | 0.892 µM | 767 ×10⁻⁶ cm/s | >30.0 min | 1.97 µM
Cc1ccc(-c2ccc3ncc4c(c3c2)n(-c2cccc(C#N)c2)c(=O)n4C)cc1 [Compound 438] | <1.0 ug/mL | 100 µM | 0.174 µM | < 1 ×10⁻⁶ cm/s | 27.2 min | 0.169 µM
